Results published in ChEMBL document CHEMBL4014283, “Structural insights of SmKDAC8 inhibitors: Targeting Schistosoma epigenetics through a combined structure-based 3D QSAR, in vitro and synthesis strategy” (Bioorg Med Chem, 2017).
Calls of active or inactive are those of the source. No cut-off for these calls is given here.

Legend:
[1] = target: T1, KDAC6 (protein deacetylase HDAC6) (Homo sapiens, UniProt Q9UBN7); assay: (§1) Inhibition of human KDAC6 expressed in baculovirus expression system at 30 uM using FITC-Histone 4 acetylated peptide as substrate after 60 mins by microfluidic assay; conditions: probe FITC-Histone 4 acetylated peptide
T1 sequence (Q9UBN7 whole entry): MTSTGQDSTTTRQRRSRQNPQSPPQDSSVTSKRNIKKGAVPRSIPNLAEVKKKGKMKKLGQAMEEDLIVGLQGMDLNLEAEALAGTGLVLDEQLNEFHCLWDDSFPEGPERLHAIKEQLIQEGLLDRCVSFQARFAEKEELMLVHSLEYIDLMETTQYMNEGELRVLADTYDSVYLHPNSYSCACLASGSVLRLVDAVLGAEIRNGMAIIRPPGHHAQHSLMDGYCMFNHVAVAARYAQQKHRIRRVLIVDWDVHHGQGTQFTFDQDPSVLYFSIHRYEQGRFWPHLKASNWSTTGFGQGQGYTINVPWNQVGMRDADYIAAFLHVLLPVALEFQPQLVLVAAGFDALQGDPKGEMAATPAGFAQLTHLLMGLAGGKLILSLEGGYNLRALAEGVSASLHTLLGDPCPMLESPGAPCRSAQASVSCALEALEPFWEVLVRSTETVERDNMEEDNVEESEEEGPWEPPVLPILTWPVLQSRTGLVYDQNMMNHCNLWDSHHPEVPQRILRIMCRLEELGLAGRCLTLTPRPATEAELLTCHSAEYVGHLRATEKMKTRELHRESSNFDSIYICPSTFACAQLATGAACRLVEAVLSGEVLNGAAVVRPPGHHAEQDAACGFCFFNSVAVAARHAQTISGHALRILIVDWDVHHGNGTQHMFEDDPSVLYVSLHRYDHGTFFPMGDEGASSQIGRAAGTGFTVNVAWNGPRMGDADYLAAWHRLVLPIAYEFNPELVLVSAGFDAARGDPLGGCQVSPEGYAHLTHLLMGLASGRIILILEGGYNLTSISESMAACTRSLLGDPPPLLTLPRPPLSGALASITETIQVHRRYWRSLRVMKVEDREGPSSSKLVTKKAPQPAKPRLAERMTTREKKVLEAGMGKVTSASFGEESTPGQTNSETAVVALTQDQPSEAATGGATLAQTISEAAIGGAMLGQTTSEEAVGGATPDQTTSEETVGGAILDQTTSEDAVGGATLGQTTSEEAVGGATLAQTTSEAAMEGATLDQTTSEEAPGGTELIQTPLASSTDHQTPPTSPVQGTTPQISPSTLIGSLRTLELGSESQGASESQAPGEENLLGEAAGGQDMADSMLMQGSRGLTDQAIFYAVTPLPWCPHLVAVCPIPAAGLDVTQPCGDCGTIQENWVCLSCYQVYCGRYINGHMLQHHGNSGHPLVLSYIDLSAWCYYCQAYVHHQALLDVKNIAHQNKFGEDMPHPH

[2] = target: Histone deacetylase 1 (Homo sapiens, UniProt Q13547); assay: (§2) Inhibition of full length human C-terminal FLAG/His-tagged KDAC1 expressed in baculovirus expression system at 30 uM using substrate A after 60 mins by microfluidic assay relative to control; conditions: 1 h, 30 µM
[3] = target: T2, Histone deacetylase 8 (Schistosoma mansoni) (UniProt A5H660); assay: Inhibition of Schistosoma mansoni KDAC8 at 30 uM using (FAM)-labeled peptide as substrate after 60 mins by microfluidic assay
T2 sequence (whole entry): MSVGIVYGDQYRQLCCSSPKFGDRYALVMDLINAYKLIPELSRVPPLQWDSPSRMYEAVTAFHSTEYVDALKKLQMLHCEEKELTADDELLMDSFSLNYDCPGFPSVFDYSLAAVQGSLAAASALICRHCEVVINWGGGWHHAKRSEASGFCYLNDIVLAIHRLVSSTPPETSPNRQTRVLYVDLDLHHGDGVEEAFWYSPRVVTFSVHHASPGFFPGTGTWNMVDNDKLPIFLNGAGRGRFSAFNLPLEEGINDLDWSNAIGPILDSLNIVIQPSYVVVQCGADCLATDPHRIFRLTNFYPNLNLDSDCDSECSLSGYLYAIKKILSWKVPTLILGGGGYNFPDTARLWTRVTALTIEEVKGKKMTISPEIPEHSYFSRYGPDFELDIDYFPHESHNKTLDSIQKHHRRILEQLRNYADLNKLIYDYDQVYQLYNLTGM

[4] = target: Histone deacetylase 3/Nuclear receptor corepressor 2 (HDAC3/NCoR2) (Homo sapiens, UniProt O15379+Q9Y618); assay: (§3) Inhibition of full length human C-terminal His-tagged KDAC3/N-terminal GST-tagged human NCOR2 (395 to 489 residues) expressed in baculovirus expression system at 30 uM using FITC-p53 acetylated peptide as substrate after 60 mins by microfluidic assay; conditions: 1 h, 30 µM
[5] = target: T3, Histone deacetylase 8 (Homo sapiens, UniProt Q9BY41); assay: (§4) Inhibition of full length human C-terminal His-tagged KDAC8 expressed in baculovirus expression system at 30 uM using (FAM)-labeled peptide as substrate after 60 mins by microfluidic assay relative to control; conditions: 1 h, 30 µM
T3 sequence (Q9BY41 whole entry): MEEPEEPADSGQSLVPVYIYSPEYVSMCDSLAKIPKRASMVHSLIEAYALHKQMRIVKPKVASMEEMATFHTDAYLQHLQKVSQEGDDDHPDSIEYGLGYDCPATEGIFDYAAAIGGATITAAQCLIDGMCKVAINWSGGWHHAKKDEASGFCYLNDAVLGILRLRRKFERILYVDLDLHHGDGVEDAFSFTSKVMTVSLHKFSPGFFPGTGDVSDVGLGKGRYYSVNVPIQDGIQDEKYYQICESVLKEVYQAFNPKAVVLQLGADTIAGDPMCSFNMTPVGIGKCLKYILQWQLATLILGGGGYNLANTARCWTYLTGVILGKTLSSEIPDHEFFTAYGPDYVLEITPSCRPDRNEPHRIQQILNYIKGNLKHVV

[6] = target: KDAC3/NCOR2 (histone deacetylase 3/nuclear receptor corepressor 2 complex) (Homo sapiens, UniProt O15379); assay: as §3; conditions: probe FITC-p53 acetylated peptide
[7] = target: T4, KDAC8 (histone deacetylase 8) (Homo sapiens, UniProt Q9BY41); assay: as §4; conditions: probe (FAM)-labeled peptide
T4 sequence (Q9BY41 whole entry): T3 sequence (Q9BY41 whole entry)

[8] = target: T5, Protein deacetylase HDAC6 (Homo sapiens, UniProt Q9UBN7); assay: as §1; conditions: 1 h, 30 µM
T5 sequence (Q9UBN7 whole entry): T1 sequence (Q9UBN7 whole entry)

[9] = target: KDAC1 (histone deacetylase 1) (Homo sapiens, UniProt Q13547); assay: as §2; conditions: probe substrate A
Chain of KDAC1 (histone deacetylase 1) (Q13547 whole entry): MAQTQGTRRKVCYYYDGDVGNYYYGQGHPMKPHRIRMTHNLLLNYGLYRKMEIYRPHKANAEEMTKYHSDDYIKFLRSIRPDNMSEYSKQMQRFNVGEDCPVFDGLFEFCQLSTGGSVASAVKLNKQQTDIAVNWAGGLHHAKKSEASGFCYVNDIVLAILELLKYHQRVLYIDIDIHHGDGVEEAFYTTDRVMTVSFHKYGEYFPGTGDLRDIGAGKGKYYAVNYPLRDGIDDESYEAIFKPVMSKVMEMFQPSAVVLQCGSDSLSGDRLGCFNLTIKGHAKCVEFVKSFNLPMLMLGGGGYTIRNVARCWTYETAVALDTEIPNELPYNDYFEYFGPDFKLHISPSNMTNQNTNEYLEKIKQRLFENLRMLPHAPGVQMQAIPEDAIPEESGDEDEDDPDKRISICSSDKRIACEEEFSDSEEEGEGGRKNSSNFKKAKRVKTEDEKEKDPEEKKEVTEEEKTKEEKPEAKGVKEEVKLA

Chain of Histone deacetylase 1 (Q13547 whole entry): as above
Chain of KDAC3/NCOR2 (histone deacetylase 3/nuclear receptor corepressor 2 complex) (O15379 whole entry): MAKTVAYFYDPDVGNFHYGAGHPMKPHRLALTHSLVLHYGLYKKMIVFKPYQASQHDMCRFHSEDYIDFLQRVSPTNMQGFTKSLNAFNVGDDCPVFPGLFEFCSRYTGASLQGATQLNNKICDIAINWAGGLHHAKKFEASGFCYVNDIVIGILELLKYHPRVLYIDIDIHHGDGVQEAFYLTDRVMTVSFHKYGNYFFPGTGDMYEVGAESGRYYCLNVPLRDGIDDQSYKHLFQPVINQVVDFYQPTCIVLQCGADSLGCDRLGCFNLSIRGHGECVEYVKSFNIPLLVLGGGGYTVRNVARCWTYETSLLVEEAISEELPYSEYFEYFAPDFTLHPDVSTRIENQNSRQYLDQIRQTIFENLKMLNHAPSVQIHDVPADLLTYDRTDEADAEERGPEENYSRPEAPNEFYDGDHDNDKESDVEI
Chain of KDAC3/NCOR2 (histone deacetylase 3/nuclear receptor corepressor 2 complex) (Q9Y618 whole entry, further chain): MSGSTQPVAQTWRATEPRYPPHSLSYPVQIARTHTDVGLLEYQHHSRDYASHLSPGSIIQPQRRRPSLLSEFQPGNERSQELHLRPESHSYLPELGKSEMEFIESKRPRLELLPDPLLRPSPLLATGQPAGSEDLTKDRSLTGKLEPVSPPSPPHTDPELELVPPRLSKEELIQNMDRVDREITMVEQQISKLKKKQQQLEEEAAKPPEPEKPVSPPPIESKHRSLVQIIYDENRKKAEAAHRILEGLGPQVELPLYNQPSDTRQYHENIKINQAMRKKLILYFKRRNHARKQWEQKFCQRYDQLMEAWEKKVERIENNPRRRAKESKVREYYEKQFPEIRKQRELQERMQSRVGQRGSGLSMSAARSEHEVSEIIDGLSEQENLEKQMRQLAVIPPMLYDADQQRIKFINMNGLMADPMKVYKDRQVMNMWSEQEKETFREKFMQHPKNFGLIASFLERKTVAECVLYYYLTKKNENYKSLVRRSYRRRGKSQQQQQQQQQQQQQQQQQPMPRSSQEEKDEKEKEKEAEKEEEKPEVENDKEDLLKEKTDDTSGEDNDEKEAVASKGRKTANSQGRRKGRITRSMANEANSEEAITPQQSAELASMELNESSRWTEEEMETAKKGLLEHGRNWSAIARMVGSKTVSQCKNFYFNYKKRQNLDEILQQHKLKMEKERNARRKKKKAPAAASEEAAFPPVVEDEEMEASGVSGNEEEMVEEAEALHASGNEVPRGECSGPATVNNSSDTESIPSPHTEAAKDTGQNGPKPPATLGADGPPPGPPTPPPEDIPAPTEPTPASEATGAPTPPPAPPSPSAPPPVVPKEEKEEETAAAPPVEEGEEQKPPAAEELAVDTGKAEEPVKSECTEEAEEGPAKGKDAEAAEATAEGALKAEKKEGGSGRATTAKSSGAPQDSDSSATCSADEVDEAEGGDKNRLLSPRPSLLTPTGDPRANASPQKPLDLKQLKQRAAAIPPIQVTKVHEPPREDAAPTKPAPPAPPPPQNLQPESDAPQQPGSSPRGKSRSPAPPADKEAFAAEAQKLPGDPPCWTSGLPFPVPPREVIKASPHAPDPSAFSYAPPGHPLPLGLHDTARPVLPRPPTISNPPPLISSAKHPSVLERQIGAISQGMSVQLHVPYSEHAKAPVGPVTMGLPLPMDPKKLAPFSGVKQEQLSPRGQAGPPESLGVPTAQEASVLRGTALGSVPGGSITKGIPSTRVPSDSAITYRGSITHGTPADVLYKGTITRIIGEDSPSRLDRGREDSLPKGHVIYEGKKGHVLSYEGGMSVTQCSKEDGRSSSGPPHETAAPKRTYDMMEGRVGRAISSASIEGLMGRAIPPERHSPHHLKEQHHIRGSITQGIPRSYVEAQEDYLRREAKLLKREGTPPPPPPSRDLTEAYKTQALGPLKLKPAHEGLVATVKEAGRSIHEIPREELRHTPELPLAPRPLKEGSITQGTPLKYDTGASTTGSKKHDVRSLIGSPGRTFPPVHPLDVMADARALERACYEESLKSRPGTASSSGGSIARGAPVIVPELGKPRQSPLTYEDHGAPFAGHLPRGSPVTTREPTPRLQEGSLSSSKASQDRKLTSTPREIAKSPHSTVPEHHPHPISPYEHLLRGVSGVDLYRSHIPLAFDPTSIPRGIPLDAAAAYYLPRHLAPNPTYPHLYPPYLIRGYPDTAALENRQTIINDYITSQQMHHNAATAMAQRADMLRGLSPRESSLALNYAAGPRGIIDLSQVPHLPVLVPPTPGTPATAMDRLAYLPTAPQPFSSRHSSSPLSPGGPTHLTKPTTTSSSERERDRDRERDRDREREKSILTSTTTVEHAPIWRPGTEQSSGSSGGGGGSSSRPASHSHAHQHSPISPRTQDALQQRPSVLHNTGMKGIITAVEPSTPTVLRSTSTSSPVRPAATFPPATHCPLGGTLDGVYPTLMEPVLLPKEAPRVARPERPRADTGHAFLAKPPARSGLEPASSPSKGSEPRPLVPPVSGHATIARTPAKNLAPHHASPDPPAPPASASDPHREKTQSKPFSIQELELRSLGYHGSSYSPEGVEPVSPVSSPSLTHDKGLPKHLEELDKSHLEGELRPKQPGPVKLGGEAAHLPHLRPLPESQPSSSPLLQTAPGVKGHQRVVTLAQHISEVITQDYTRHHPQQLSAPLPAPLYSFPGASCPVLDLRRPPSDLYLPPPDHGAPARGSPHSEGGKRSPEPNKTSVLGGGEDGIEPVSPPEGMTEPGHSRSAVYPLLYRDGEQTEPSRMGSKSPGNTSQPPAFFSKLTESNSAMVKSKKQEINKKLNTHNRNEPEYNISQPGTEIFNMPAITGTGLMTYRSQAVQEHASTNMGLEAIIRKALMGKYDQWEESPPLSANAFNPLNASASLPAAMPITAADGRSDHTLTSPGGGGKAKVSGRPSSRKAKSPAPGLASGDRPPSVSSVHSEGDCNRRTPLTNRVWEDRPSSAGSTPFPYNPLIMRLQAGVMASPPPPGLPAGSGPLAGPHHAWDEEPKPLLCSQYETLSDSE
Chain of Histone deacetylase 3/Nuclear receptor corepressor 2 (HDAC3/NCoR2) (O15379 whole entry, the tested form may be a part): as the sequence (O15379 whole entry) above
Chain of Histone deacetylase 3/Nuclear receptor corepressor 2 (HDAC3/NCoR2) (Q9Y618 whole entry, the tested form may be a part): as the sequence (Q9Y618 whole entry, further chain) above

| inhibition at 1 h, 30 µM [1] [%] | inhibition (INH) [2] | inhibition [3] | inhibition (INH) [4] | inhibition (INH) [5] | inhibition at 1 h, 30 µM [6] [%] | inhibition at 1 h, 30 µM [7] [%] | inhibition (INH) [8] | inhibition at 1 h, 30 µM [9] [%] | SMILES |
| --- | --- | --- | --- | --- | --- | --- | --- | --- | --- |
| 1 | Not Active | 1% | Not Active | Not Active |  |  |  |  | Nc1ccccc1SC1CC(=O)N(c2ccccc2Cl)C1=O (stereo not given) |
| 3 | Not Active | 37% |  |  | 6 | 17 |  |  | COC(=O)CC1(C(=O)OC)Nc2cc(Cl)c(Cl)cc2S(=O)(=O)N1 (stereo not given) |
|  |  | inactive |  | Not Active | 6 |  | Not Active | 1 | CC1=NN(c2ccccc2)C(=O)C1/N=N/c1ccc(S(N)(=O)=O)cc1 (stereo not given) |
|  | Not Active | 16% |  |  | 7 | 7 | Not Active |  | O=C(NCc1ccco1)Nc1cccc([N+](=O)[O-])c1 |
| 3 | Not Active | inactive |  | Not Active | 8 |  |  |  | CSC1=NC=C(C#N)C2=NC(c3ccc(Cl)cc3)NN12 (stereo not given) |
| 3 | Not Active | inactive | Not Active |  |  | 19 |  |  | Cc1cc(OCCCCOc2ccc(C#N)cc2)ccc1[N+](=O)[O-] |
| 2 |  | 1% |  |  | 1 | 3 |  | 2 | CCOC(=O)Cc1cc(=O)[nH]n(-c2ccccc2)c1=O |
| 3 |  | inactive |  |  | 1 | 19 |  | 2 | O=C(O)Cc1ccc(/N=N/c2c(O)c(C(=O)O)cc3ccccc23)cc1 |
| 7 | Not Active | 13% |  |  | 9 | 24 |  |  | COc1ccc([N+](=O)[O-])cc1NS(=O)(=O)c1ccc(C)cc1 |
|  |  | inactive |  | Not Active | 7 |  | Not Active | 1 | CCOC(=O)C(Cc1ccc(O)cc1)Nc1nc2ccccc2o1 (stereo not given) |
|  |  | inactive | Not Active | Not Active |  |  | Not Active | 5 | CCOC(=O)c1[nH]c(C(=O)O)c(OC(=O)CC)c1C |
| 20 | Not Active | inactive |  | Not Active | 24 |  |  |  | CSc1nc(O)nnc1Sc1ccccc1 |
|  | Not Active | inactive |  |  | 1 | 5 | Not Active |  | O=C1c2ccccc2C2=C3C(O)=NN=C3CCN12 |
| 21 | Not Active | inactive |  | Not Active | 9 |  |  |  | CCOC(=O)CSc1nc2nc(Cl)c(Cl)[nH]c-2n1 |
|  | Not Active | inactive |  |  | 3 | 7 | Not Active |  | Cc1c(COC(=O)N(C)C)c(COC(=O)NC(C)C)c2n1CS(=O)(=O)C2 |
| 3.7 | Not Active | 8.43% |  |  | 6.7 | 10.4 |  |  | Nc1cc(Cl)c(Cl)cc1S(=O)(=O)NO |
|  |  | inactive |  | Not Active | 10 |  | Not Active | 3 | O=C(Nc1cccc([N+](=O)[O-])c1)c1ccc2ccccc2c1O |
| 12.3 | Not Active | inactive |  |  | 0.8 | 23.5 |  |  | O=C1Nc2cc(Cl)c(Cl)cc2S(=O)(=O)N1O |
| 18 | Not Active | inactive |  | Not Active | 10 |  |  |  | O=C1CSC(=S)N1/N=C/c1c[nH]c2ccc(Br)cc12 |
| 9 | Not Active | inactive | Not Active | Not Active |  |  |  |  | CC1(C)[C@H]2CC[C@H](CNC(=N)CSS(=O)(=O)O)[C@@H]1C2 |
|  | Not Active | 5% | Not Active |  |  | 6 | Not Active |  | CCOC(=O)Nc1ccc2nc(N3CCCCCC3)sc2c1 |
|  |  | 9% |  | Not Active | 1 |  | Not Active | 3 | CC1=CC(C)(C)N=C(S)N1c1cccc2cc(S(=O)(=O)O)ccc12 |
|  | Not Active | 2% | Not Active |  |  | 4 | Not Active |  | Cc1cc(C)n(C(=N)NC(=O)c2ccc([N+](=O)[O-])cc2)n1 |
|  | Not Active | inactive | Not Active |  |  | 4 | Not Active |  | S=C(SCc1cc(Cl)cc2c1OCOC2)N1CCSCC1 |
|  | Not Active | inactive |  |  | 2 | 15 | Not Active |  | CCOC(=O)c1cc2c(OC)c(OC)ccc2c2ncc(C#N)c(O)c12 |
| 1 | Not Active | 2% | Not Active |  |  | 31 |  |  | O=[N+]([O-])c1c(N2CCN(CCO)CC2)nc2ccccn12 |
